From patent US10202368B2, “CXCR7 receptor modulators” (IDORSIA PHARMACEUTICALS LTD, priority 2014, dated 2019)

Molecular target: CXCR7 (Homo sapiens (Human), UniProt P25106)
Test: PathHunter CHO-K1 CXCR7 β-arrestin assay (agonistic activity)
Assay type: cell-based
Conditions: β-arrestin recruitment in PathHunter CHO-K1 CXCR7 β-arrestin cells, 90 minutes at 37° C., geometric mean values
Procedure: The CXCI12 receptor and CXCR7 agonistic activities of the compounds of formula (I) are determined in accordance with the following experimental method.
The assay is using the PathHunter™ CHO-K1 CXCR7 β-arrestin cell line from DiscoverX. The system is based on the Enzyme Fragment Complementation Technology. Two complementing fragments of the β-galactosidase enzyme are expressed within stably transfected cells. The larger portion of β-gal, termed EA for Enzyme Acceptor, is fused to the C-terminus of b-arrestin 2. The smaller fragment, termed ProLink™ tag, is fused to CXCR7 at the C-terminus. Upon activation, b-arrestin is recruited which forces the interaction of ProLink and EA, allowing complementation of the two fragments of b-gal and the formation of a functional enzyme which is capable of hydrolysing the substrate and generating a chemiluminescent signal.
CHO-K1 CXCR7 β-arrestin cells are detached from culture dishes with a cell dissociation buffer (Invitrogen, #13151-014) and collected in growing medium (F12 HAMS 90% (v/v)/FCS 10% (v/v), Penicillin/streptomycin 1% (v/v)). 5000 cells per well (in 20 μl) are seeded in a 384 well plate (white-walled, clear bottom; BD Falcon #353274). The plate is incubated at 37° C./5% CO2 for 24 hours. Medium is then replaced by 20 μl OPTIMEM (Invitrogen #31985) for 3 to 4 hours. Test compounds are dissolved at 10 mM in DMSO and serially diluted in DMSO to 200× of the final concentration for dose response curves. Compounds are then diluted 1:33.3 in HBSS1X. 5 μl/well of HBSS1X/20 mM HEPES/0.2% BSA are added to the assay plate followed by addition of 5 μl/well of diluted compounds. CXCL12 (Peprotech #300-28A) may be used as a reference agonist. The plate is incubated for 90 minutes at 37° C. 12 μl of detection reagent (Path Hunter Detection Kit, DiscoveRx, #93-0001) is transferred to the assay plate and to the plate is incubated for 1 hour at room temperature. Luminescent signal is read in a microplate reader (FLUOstar Optima, bmg). The calculated EC50 values may fluctuate depending on the daily cellular assay performance. Fluctuations of this kind are known to those skilled in the art. Average EC50 values from several measurements are given as geometric mean values.

Sequence of CXCR7 (P25106 whole entry): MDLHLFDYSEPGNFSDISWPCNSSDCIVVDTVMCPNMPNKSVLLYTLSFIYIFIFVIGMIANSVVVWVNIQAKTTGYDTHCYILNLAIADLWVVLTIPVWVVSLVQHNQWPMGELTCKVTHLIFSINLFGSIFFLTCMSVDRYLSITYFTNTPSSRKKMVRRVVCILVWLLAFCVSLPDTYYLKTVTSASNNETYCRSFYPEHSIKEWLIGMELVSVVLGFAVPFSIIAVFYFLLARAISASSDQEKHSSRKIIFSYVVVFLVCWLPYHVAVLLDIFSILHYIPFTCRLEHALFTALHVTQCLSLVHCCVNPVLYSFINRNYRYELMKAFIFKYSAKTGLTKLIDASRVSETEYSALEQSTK
Sequence of CXCR7 (P32121 whole entry partner): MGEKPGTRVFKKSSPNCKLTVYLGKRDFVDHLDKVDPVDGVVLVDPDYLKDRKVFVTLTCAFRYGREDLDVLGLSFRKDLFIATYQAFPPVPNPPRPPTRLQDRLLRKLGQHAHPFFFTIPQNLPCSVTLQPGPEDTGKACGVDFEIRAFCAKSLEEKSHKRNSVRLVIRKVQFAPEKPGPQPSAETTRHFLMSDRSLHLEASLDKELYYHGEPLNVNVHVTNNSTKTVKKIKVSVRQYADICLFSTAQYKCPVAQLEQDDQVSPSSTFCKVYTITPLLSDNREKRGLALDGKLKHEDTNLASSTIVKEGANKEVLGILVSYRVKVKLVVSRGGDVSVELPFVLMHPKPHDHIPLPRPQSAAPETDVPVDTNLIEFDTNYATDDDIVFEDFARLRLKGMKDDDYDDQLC

CN(C)CCN(Cc1ccccc1C(F)(F)F)C(=O)CNc1cccc2c1CN(CC1CC1)CCO2 [Example 22, 2-(4-Cyclopropylmethyl-2,3,4,5-tetrahydro-benzo[f][1,4]oxazepin-6-ylamino)-N-(2-dimethylamino-ethyl)-N-(2-trifluoromethyl-benzyl)-acetamide]
EC50: 4 nM

CN(C)CCN(Cc1ccccc1C(F)(F)F)C(=O)COc1cccc2c1CCN(CC1CC1)CC2 [Example 23, 2-(3-Cyclopropylmethyl-2,3,4,5-tetrahydro-1H-benzo[d]azepin-6-yloxy)-N-(2-dimethylamino-ethyl)-N-(2-trifluoromethyl-benzyl)-acetamide]
EC50: 1 nM

COCC(=O)N1CCc2cccc(OCC(=O)N(CCN(C)C)Cc3ccccc3C(F)(F)F)c2CC1 [Example 24, N-(2-Dimethylamino-ethyl)-2-[3-(2-methoxy-acetyl)-2,3,4,5-tetrahydro-1H-benzo[d]azepin-6-yloxy]-N-(2-trifluoromethyl-benzyl)-acetamide]
EC50: 3 nM

CC(=O)N1CCc2cccc(OCC(=O)N(CCN(C)C)Cc3ccccc3C(F)(F)F)c2CC1 [Example 25, 2-(3-Acetyl-2,3,4,5-tetrahydro-1H-benzo[d]azepin-6-yloxy)-N-(2-dimethylamino-ethyl)-N-(2-trifluoromethyl-benzyl)-acetamide]
EC50: 3 nM

CN(C)CCN(Cc1ccccc1C(F)(F)F)C(=O)CNc1cccc2c1CCN(C(=O)C(F)(F)F)CC2 [Example 26, N-(2-Dimethylamino-ethyl)-2-[3-(2,2,2-trifluoro-acetyl)-2,3,4,5-tetrahydro-1H-benzo[d]azepin-6-ylamino]-N-(2-trifluoromethyl-benzyl)-acetamide]
EC50: 4 nM

CN(C)CCN(Cc1ccccc1C(F)(F)F)C(=O)CNc1cccc2c1CCN(CC1CC1)CC2 [Example 27, 2-(3-Cyclopropylmethyl-2,3,4,5-tetrahydro-1H-benzo[d]azepin-6-ylamino)-N-(2-dimethylamino-ethyl)-N-(2-trifluoromethyl-benzyl)-acetamide]
EC50: 2 nM

CN(C)CCN(Cc1ccccc1C(F)(F)F)C(=O)CNc1cccc2c1CCCN(CC1CC1)C2 [Example 28, 2-(2-Cyclopropylmethyl-2,3,4,5-tetrahydro-1H-benzo[c]azepin-6-ylamino)-N-(2-dimethylamino-ethyl)-N-(2-trifluoromethyl-benzyl)-acetamide]
EC50: 3 nM

CC(C)(C)NCCN(Cc1ccccc1C(F)(F)F)C(=O)CNc1cccc2c1C(=O)N(CC1CC1)CCO2 [Example 29, N-(2-tert-Butylamino-ethyl)-2-(4-cyclopropylmethyl-5-oxo-2,3,4,5-tetrahydro-benzo[f][1,4]oxazepin-6-ylamino)-N-(2-trifluoromethyl-benzyl)-acetamide]
EC50: 3 nM

CN(C)CCN(Cc1cccc(Cl)c1Cl)C(=O)CNc1cccc2c1C(=O)N(CC1CC1)CCO2 [Example 30, 2-(4-Cyclopropylmethyl-5-oxo-2,3,4,5-tetrahydro-benzo[f][1,4]oxazepin-6-ylamino)-N-(2,3-dichloro-benzyl)-N-(2-dimethylamino-ethyl)-acetamide]
EC50: 7.8 nM

CN(C)CCN(Cc1c(Cl)cccc1Cl)C(=O)CNc1cccc2c1C(=O)N(CC1CC1)CCO2 [Example 31, 2-(4-Cyclopropylmethyl-5-oxo-2,3,4,5-tetrahydro-benzo[f][1,4]oxazepin-6-ylamino)-N-(2,6-dichloro-benzyl)-N-(2-dimethylamino-ethyl)-acetamide]
EC50: 27 nM

CN(C)CCN(Cc1ccccc1Cl)C(=O)CNc1cccc2c1C(=O)N(CC1CC1)CCO2 [Example 32, N-(2-Chloro-benzyl)-2-(4-cyclopropylmethyl-5-oxo-2,3,4,5-tetrahydro-benzo[f][1,4]oxazepin-6-ylamino)-N-(2-dimethylamino-ethyl)-acetamide]
EC50: 15 nM

Cc1cccc(CN(CCN(C)C)C(=O)CNc2cccc3c2C(=O)N(CC2CC2)CCO3)n1 [Example 33, 2-(4-Cyclopropylmethyl-5-oxo-2,3,4,5-tetrahydro-benzo[f][1,4]oxazepin-6-ylamino)-N-(2-dimethylamino-ethyl)-N-(6-methyl-pyridin-2-ylmethyl)-acetamide]
EC50: 24 nM
